Assay results reported in PMC11181328 (Journal of Medicinal Chemistry, 2024).
Counter-ions that a name gives are not always drawn. Like-named read-outs stand apart in the source and are kept apart here.

Tests used:
MOR [1] = target: T1, MOR (Mus musculus, UniProt P42866); test: Competitive radioligand binding assay, MOR; parameters: expressed in transfected cells; membrane homogenate
male Swiss Webster mice [2] = test: Warm-water tail immersion assay, agonism (single dose screen and potency); assay type: in vivo, mouse; conditions: for antinociception compared to the vehicle group / percent MPE: single dose 10 mg/kg s.c.; for antinociception compared to the vehicle group: 20 min; for ED50: Mus musculus, sc, read-out: potency ED50 [95% CI] mg/kg, s.c., 20 min prior to tail withdrawal latency measurement, male Swiss Webster mice; for percent MPE: withdrawal latency 20 min after administration
MOR [3] = target: T1, MOR; conditions: percent of DAMGO; MOR functional activity first published; cited from earlier work
KOR [4] = target: T2, KOR (Mus musculus, UniProt P33534); test: [35S]-GTPγS functional assay, KOR; assay type: biochemical; conditions: for Emax: percent of U50,488 full agonist control; for EC50: mKOR-CHO membranes
T2 construct: expressed in transfected cells; membrane homogenate

DOR [5] = target: T3, DOR (Homo sapiens, UniProt P41143); test: Competitive radioligand binding assay, DOR
T3 construct: expressed in transfected cells; membrane homogenate

DOR [6] = target: T3, DOR; test: [35S]-GTPγS functional assay, DOR; assay type: biochemical; conditions: for EC50: hDOR-CHO membranes; for Emax: percent of SNC80 full agonist control
KOR [7] = target: T2, KOR; test: Competitive radioligand binding assay, KOR; conditions: for selectivity ratio δ/κ / selectivity ratio μ/κ: ratio of Ki values
MOR [8] = target: T1, MOR; test: [35S]-GTPγS functional assay, MOR; assay type: biochemical; parameters: expressed in transfected cells; membrane homogenate; conditions: for EC50: mMOR-CHO membranes; for Emax: read-out: [35S]-GTPγS functional activity MOR Emax (%)
in vitro [9] = conditions: human, s9
in vitro [10] = conditions: Sprague-Dawley, rat, s9
male Swiss Webster mice [11] = test: Warm-water tail immersion assay, time course study; assay type: in vivo, mouse; conditions: morphine 10 mg/kg s.c.
[12] = [3H]naloxone, mMOR-CHO membranes
[13] = [3H]naloxone, mMOR-CHO membranes, read-out: radioligand binding affinity (Ki, nM) MOR
[14] = [3H]diprenorphine, mKOR-CHO membranes

| Compound | radioligand binding affinity (Ki, nM) MOR (MOR [1]; [12]) | Ki (MOR [1]; [13]) | antinociception compared to the vehicle group (male Swiss Webster mice [2]) | [35S]-GTPγS functional activity MOR Emax (%) (MOR [3]) | Emax (KOR [4]) | EC50 (DOR [6]) | radioligand binding affinity (Ki, nM) KOR (KOR [7]; [14]) | EC50 (KOR [4]) | Ki (MOR [1]) | Ki (DOR [5]) | ED50 (male Swiss Webster mice [2]) | percent MPE (male Swiss Webster mice [2]) | Ki (KOR [7]) | selectivity ratio δ/κ (KOR [7]) | EC50 (MOR [8]) | Emax (MOR [8]) | also measured |
| --- | --- | --- | --- | --- | --- | --- | --- | --- | --- | --- | --- | --- | --- | --- | --- | --- | --- |
| Cl.O=C(CCc1ccoc1)N[C@H]1CC[C@@]2(O)[C@H]3Cc4ccc(O)c5c4[C@@]2(CCN3CC2CC2)[C@H]1O5 [Compound 6, 17-Cyclopropylmethyl-3,14β-dihydroxy-4,5α-epoxy-6α-[3′-(furan-3″-yl)propanamido]morphinan Hydrochloride] | subnanomolar | 0.44 ± 0.1 nM | lack of significant antinociceptive effect | 27.62 ± 1.96% | 80.3 ± 4.73% | – | – | – | – | – | – | – | – | – | – | – | – |
| Cl.O=C(CCc1ccoc1)N[C@@H]1CC[C@@]2(O)[C@H]3Cc4ccc(O)c5c4[C@@]2(CCN3CC2CC2)[C@H]1O5 [Compound 8, 17-Cyclopropylmethyl-3,14β-dihydroxy-4,5α-epoxy-6β-[3′-(furan-3″-yl)propanamido]morphinan Hydrochloride] | subnanomolar | 0.21 ± 0.01 nM | lack of significant antinociceptive effect | above 40% | 95.9 ± 1.43% | – | – | – | – | – | – | – | – | – | – | – | – |
| Cl.O=C(CCc1ccco1)N[C@@H]1CC[C@@]2(O)[C@H]3Cc4ccc(O)c5c4[C@@]2(CCN3CC2CC2)[C@H]1O5 [Compound 16, 17-Cyclopropylmethyl-3,14β-dihydroxy-4,5α-epoxy-6β-[3′-(furan-2″-yl)propanamido]morphinan Hydrochloride] | subnanomolar | 0.28 ± 0.02 nM | lack of significant antinociceptive effect | above 40% | – | 16.8 ± 2.96 nM | subnanomolar | 1.62 ± 0.12 nM | – | – | – | – | – | – | – | – | Ki (DOR [5]; [3H]diprenorphine, hDOR-CHO membranes, read-out: radioligand binding affinity (Ki, nM) DOR): 33 ± 3.58 nM; Ki (KOR [7]; [3H]diprenorphine, mKOR-CHO membranes, read-out: radioligand binding affinity (Ki, nM) KOR): 0.61 ± 0.07 nM |
| CN(C(=O)/C=C/c1ccco1)[C@H]1CC[C@@]2(O)[C@H]3Cc4cccc5c4[C@@]2(CCN3CC2CC2)[C@H]1O5 [Compound 17, 17-Cyclopropylmethyl-4,5α-epoxy-6α-[(2E)-3′-(furan-2″-yl)N-methylprop-2-enamido]-14β-hydroxymorphinan Hydrochloride] | – | – | – | – | 110 ± 7.9% | 440 ± 32.2 nM | subnanomolar | 5.97 ± 0.42 nM | 16.8 ± 1.34 nM | 68.4 ± 11.2 nM | 7.8 mg/kg | ≥ 80% | 0.62 ± 0.04 nM | 110 | 125 ± 17.1 nM | 22.9 ± 2.01% | selectivity ratio μ/κ (KOR [7]): 27 |
| O=C(/C=C/c1ccco1)N[C@H]1CC[C@@]2(O)[C@H]3Cc4cccc5c4[C@@]2(CCN3CC2CC2)[C@H]1O5 [Compound 18, 17-Cyclopropylmethyl-4,5α-epoxy-6α-[(2E)-3′-(furan-2″-yl)prop-2-enamido]-14β-hydroxymorphinan Hydrochloride] | – | – | lack of significant antinociceptive effect | – | 85.2 ± 6.52% | 1240 ± 147 nM | – | 1370 ± 89 nM | 107 ± 8.37 nM | 456 ± 26.4 nM | – | – | 249 ± 32 nM | 2 | 1510 ± 948 nM | 16 ± 2.91% | Emax (DOR [6]): 75 ± 5.1% |
| O=C(/C=C/c1ccco1)N[C@@H]1CC[C@@]2(O)[C@H]3Cc4cccc5c4[C@@]2(CCN3CC2CC2)[C@H]1O5 [Compound 20, 17-Cyclopropylmethyl-4,5α-epoxy-6β-[(2E)-3′-(furan-2″-yl)prop-2-enamido]-14β-hydroxymorphinan Hydrochloride] | – | – | lack of significant antinociceptive effect | – | 99.7 ± 5.88% | 860 ± 148 nM | – | 178 ± 18.1 nM | 42.4 ± 2.34 nM | 551 ± 64 nM | – | – | 7.03 ± 0.92 nM | 78 | 1140 ± 984 nM | 12.8 ± 3% | Emax (DOR [6]): > 80%; selectivity ratio μ/κ (KOR [7]): 6 |
| O=C(/C=C/c1ccco1)N[C@H]1CC[C@@]2(O)[C@H]3Cc4ccc(O)c5c4[C@@]2(CCN3CC2CC2)[C@H]1O5 [Compound 22, 17-Cyclopropylmethyl-3,14β-dihydroxy-4,5α-epoxy-6α-[(2E)-3′-(furan-2″-yl)prop-2-enamido]morphinan Hydrochloride] | subnanomolar | – | – | – | – | 21.1 ± 1.41 nM | – | 13.7 ± 2.52 nM | 0.53 ± 0.06 nM | 8.75 ± 0.58 nM | 4.08 mg/kg | ≥ 80% | 1.08 ± 0.03 nM | – | 2.97 ± 0.45 nM | – | – |
| O=C(/C=C/c1ccco1)N[C@@H]1CC[C@@]2(O)[C@H]3Cc4ccc(O)c5c4[C@@]2(CCN3CC2CC2)[C@H]1O5 [Compound 24, 17-Cyclopropylmethyl-3,14β-dihydroxy-4,5α-epoxy-6β-[(2E)-3′-(furan-2″-yl)prop-2-enamido]morphinan Hydrochloride] | subnanomolar | – | – | – | – | 13.1 ± 2.09 nM | subnanomolar | 0.54 ± 0.11 nM | 0.3 ± 0.02 nM | 12.8 ± 2.37 nM | 3.32 mg/kg | ≥ 80% | 0.17 ± 0.02 nM | – | 6.76 ± 1.99 nM | – | – |
| O=C(O)Cc1ccccc1Nc1c(Cl)cccc1Cl [diclofenac, reference compound] | – | – | – | – | – | – | – | – | – | – | – | – | – | – | – | – | half-life at 1 h, 1 µM (in vitro [9]): 0.308 h; microsomal CLint at 1 h, 1 µM (in vitro [9]): 37.4 µL/min/mg; half-life at 1 h, 1 µM (in vitro [10]): 1.7 h; microsomal CLint at 1 h, 1 µM (in vitro [10]): 6.8 µL/min/mg |
| CN1CC[C@]23c4c5ccc(O)c4O[C@H]2[C@@H](O)C=C[C@H]3[C@H]1C5 [morphine, (-)-Morphine sulfate pentahydrate, reference compound] | – | – | – | – | – | – | – | – | – | – | – | 100% | – | – | – | – | effects back to baseline (male Swiss Webster mice [11]): 5 h; time of significant antinociception postinjection (male Swiss Webster mice [11]): 30 to 60 min |
